pKi: −log10 of the molar value.
What was measured:
psychosis = settings: cited from earlier work
sigma (σ-2) site = sigma (σ-2) site (Homo sapiens, UniProt Q5BJF2); settings: cited from earlier work
sigma 1 (σ-1) site = sigma 1 (σ-1) site (Homo sapiens, UniProt Q99720); settings: cited from earlier work
σ2-receptor = biological target: T1, σ2-receptor (Mus musculus, UniProt Q8VD00); test: Sigma-2 receptor binding, [3H]-DTG, brains from σ1 knockout mice; design: % Binding σ2: dose or concentration left out as unconfirmed
T1 construct: brains from sigma receptor type I (σ1) knockout mice were homogenized; from tissue; host or cells: brain membranes of σ1 knockout mice
T1 sequence (Q8VD00 1-176): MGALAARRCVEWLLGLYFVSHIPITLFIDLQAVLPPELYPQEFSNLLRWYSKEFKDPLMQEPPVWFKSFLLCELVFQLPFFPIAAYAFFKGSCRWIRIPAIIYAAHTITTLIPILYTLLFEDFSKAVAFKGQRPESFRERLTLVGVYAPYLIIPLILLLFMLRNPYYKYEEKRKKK
Experimental: Binding studies for σ2-receptor were performed as described ([…] et al., 1991) with some modifications. In brief, brains from sigma receptor type I (σ1) knockout mice were homogenized in a volume of 10 mL/g tissue net weight of ice-cold 10 mM Tris-HCl, pH 7.4, containing 320 mM sucrose (Tris-sucrose buffer) with a Potter-Elvehjem homogenizer (10 strokes at 500 r.p.m.) The homogenates were then centrifuged at 1000 g for […] at 4° C., and the supernatants were saved. The pellets were resuspended by vortexing in 2 mL/g ice-cold Tris-sucrose buffer and centrifuged again at 1000 g for 10 min. The combined 1000 g supernatants were centrifuged at 31000 g for 15 min at 4° C. The pellets were resuspended by vortexing in 3 mL/g 10 mM Tris-HCl, pH 7.4, and the suspension was kept at 25° C. for 15 min. Following centrifugation at 31000 g for 15 min, the pellets were resuspended by gentle Potter Elvehjem homogenization to a volume of 1.53 mL/g in 10 mM Tris-HCl pH 7.4. The assay tubes contained 10 μL of [^3H]-DTG (final concentration of 3 nM), 400 μL of the tissue suspension (5.3 mL/g in 50 mM Tris-HCl, pH 8.0) to a final assay volume of 0.5 mL. […] The amount of bound radioactivity was determined by liquid scintillation spectrometry using a Wallac Winspectral 1414 liquid scintillation counter. Protein concentrations were determined by the method of Lowry et al. (1951).

[1] = system: capsaicin-induced mechanical allodynia; test: Effect on capsaicin in development of mechanical allodynia (von Frey filaments); format: in vivo; settings: mice
Experimental: This model uses the von-Frey Filaments and is a model to test the effects or symptoms of neuropathic pain, allodynia etc.
• The injection of 1 μg of capsaicin to experimental animals produces acute pain followed by hyperalgesia/allodynia • The mechanisms involved in capsaicin-induced acute pain and hyperalgesia are relatively well known (mainly activation of peripheral nociceptors and sensitization of spinal cord neurons, respectively)
After habituation mice were according to FIG. 1 first treated with the test-compound (or solvent in controls). Then 1 μg capsaicin (1% DMSO) is injected into their paw resulting in developing pain in the effected paw. The effected paw is then treated with a mechanical stimulus and the latency time before the paw is withdrawn is measured.

σ1-receptor = biological target: T2, σ1-receptor (Cavia porcellus, UniProt Q60492); test: Sigma-1 receptor binding, [3H](+)-pentazocine, brain membranes; design: species or system guinea pig; settings: for inhibition at 0.1 µM: 10^−7 M
T2 construct: guinea pig brains were homogenized; from tissue; host or cells: guinea pig brain membranes
T2 sequence (Q60492 whole entry): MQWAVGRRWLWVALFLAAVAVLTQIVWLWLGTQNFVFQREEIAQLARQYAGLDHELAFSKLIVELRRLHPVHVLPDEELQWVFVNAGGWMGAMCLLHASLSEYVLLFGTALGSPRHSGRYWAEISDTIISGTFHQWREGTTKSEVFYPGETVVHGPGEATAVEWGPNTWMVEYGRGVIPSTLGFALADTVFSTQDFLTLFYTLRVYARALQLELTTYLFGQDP
Experimental: Brain membrane preparation and binding assays for the σ1-receptor were performed as described (DeHaven-Hudkins et al., 1992) with some modifications. In brief, guinea pig brains were homogenized in 10 vols. (w/v) of Tris-HCl 50 mM 0.32 M sucrose, pH 7.4, with a Kinematica Polytron PT 3000 at 15000 r.p.m. for 30 s. The homogenate was centrifuged at 1000 g for […] at 4° C. and the supernatants collected and centrifuged again at 48000 g for 15 min at 4° C. The pellet was resuspended in 10 volumes of Tris-HCl buffer (50 mM, pH 7.4), incubated at 37° C. for 30 min, and centrifuged at 48000 g for 20 min at 4° C. Following this, the pellet was resuspended in fresh Tris-HCl buffer (50 mM, pH 7.4) and stored on ice until use.
Each assay tube contained 10 μL of [^3H](+)-pentazocine (final concentration of 0.5 nM), 900 μL of the tissue suspension to a final assay volume of 1 mL and a final tissue concentration of approximately 30 mg tissue net weight/mL. […] All tubes were incubated at 37° C. for 150 min before termination of the reaction by rapid filtration over Schleicher & Schuell GF 3362 glass fibre filters [previously soaked in a solution of 0.5% polyethylenimine for at least 1 h]. Filters were then washed with four times with 4 mL of cold Tris-HCl buffer (50 mM, pH 7.4). Following addition of scintillation cocktail, the samples were allowed to equilibrate overnight. The amount of bound radioactivity was determined by liquid scintillation spectrometry using a Wallac Winspectral 1414 liquid scintillation counter. Protein concentrations were determined by the method of Lowry et al. (1951).

Sequence of sigma 1 (σ-1) site (Q99720 whole entry): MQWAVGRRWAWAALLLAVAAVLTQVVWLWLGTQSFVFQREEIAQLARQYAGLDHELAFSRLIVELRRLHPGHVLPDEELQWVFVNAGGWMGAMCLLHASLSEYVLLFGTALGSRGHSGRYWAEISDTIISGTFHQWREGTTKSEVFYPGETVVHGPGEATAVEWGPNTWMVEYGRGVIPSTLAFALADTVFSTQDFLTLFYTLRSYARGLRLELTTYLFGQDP
Sequence of sigma (σ-2) site (Q5BJF2 whole entry): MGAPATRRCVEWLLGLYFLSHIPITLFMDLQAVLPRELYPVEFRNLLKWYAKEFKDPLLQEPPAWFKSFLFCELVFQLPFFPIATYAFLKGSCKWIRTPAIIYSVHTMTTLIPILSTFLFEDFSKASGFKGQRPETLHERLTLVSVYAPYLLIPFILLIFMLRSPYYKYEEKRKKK

Compound | melting point [°C] | inhibition at 0.1 µM (σ1-receptor) [%] | other results
C[C@@H]1CN(CCCn2c3ccccc3c3ccccc32)C[C@H](C)N1 [rimcazole] | – | – | clinical effects in the treatment of psychosis (psychosis): clinically shows effects in the treatment of psychosis
SKF 10047 | – | – | affinity for the sigma (σ-2) site (sigma (σ-2) site): micromolar affinity; affinity for the sigma 1 (σ-1) site (sigma 1 (σ-1) site): nanomolar affinity
Cc1cc(OCCN2CCOCC2)nn1-c1ccc(Cl)c(Cl)c1 [Example 1, 4-{2-(1-(3,4-Dichlorophenyl)-5-methyl-1H pyrazol-3-yloxy)ethyl}morpholine] | 179 to 182 | – | % Binding σ2 (σ2-receptor): 3.7%; pKi (σ2-receptor): < 5.00; analgesia in capsaicin-induced neuropathic pain, dose dependency (FIG. 2) ([1]; 1 μg capsaicin into paw, von Frey filaments): dose dependency of the treatment; efficacy depending on the force of the von-Frey filaments (FIG. 3) ([1]; 1 μg capsaicin, 0.5 g typically in the range of neuropathic pain/allodynia): effective specifically in neuropathic pain or mechanical allodynia
Cc1cc(OCCCCN2CCCCC2)nn1-c1ccc(Cl)c(Cl)c1.Cl [Example 24, 1-{4-[1-(3,4-Dichlorophenyl)-5-methyl-1H-pyrazol-3-yloxy]butyl}piperidine hydrochloride] | 156 to 161 | 110 | pKi (σ1-receptor): 9.30
Cc1cc(OCCCCN2CCOCC2)nn1-c1ccc(Cl)c(Cl)c1.Cl [Example 22, 4-{4-[1-(3,4-Dichlorophenyl)-5-methyl-1H-pyrazol-3-yloxy]butyl}morpholine hydrochloride] | 150 to 154 | 97 | pKi (σ1-receptor): 8.60
CC(C)c1cc(OCCN2CCCC2)nn1-c1ccc(Cl)c(Cl)c1.Cl [Example 33, 1-(3,4-Dichlorophenyl)-5-isopropyl-3-[2-(pyrrolidin-1-yl)ethoxy]-1H-pyrazole hydrochloride] | 138 to 142 | 87.1 | –
Cc1cc(OCCCN2CCCC2)nn1-c1ccc(Cl)c(Cl)c1.Cl [Example 4, 1-(3,4-Dichlorophenyl)-5-methyl-3-[3-(pyrrolidin-1-yl)propoxy]-1H-pyrazole hydrochloride] | 149 to 155 | 98 | –
CC(C)c1cc(OCCN2CCOCC2)nn1-c1ccc(Cl)c(Cl)c1.Cl [Example 31, 4-{2-[1-(3,4-dichlorophenyl)-5-isopropyl-1H-pyrazol-3-yloxy]ethyl}morpholine hydrochloride] | 195 to 197 | 68.6 | –

Reference: US8470867B2, “Sigma receptor inhibitors” (Laboratorios Del Dr. Esteve, S.A., priority 2004, dated 2013)
